Measurements from patent US10865192B2, “Nicotine salts, co-crystals, and salt co-crystal complexes” (priority 2014, dated 2020).
Read-outs that look alike come from different tables or passages of the source.

Experiments:
[1] = for Relative humidity at which sample deliquesced in GVS (stable until): GVS adsorption; for Relative humidity at which sample deliquesced in GVS (stable until) / On desorption, moisture retained down to / water lost by / Total weight change 0-90% RH / Hygroscopicity / behaviour in GVS experiment: 25° C.; for Behaviour after deliquescence when humidity is reduced / On desorption, moisture retained down to / water lost by: GVS desorption; for XRPD of residue after GVS: residue recovered after GVS isotherm
Procedure: Sorption isotherms were obtained using a SMS DVS Intrinsic moisture sorption analyzer, controlled by DVS Intrinsic Control software v1.0.1.2 (or v 1.0.1.3). The sample temperature was maintained at 25° C. by the instrument controls. The humidity was controlled by mixing streams of dry and wet nitrogen, with a total flow rate of 200 ml/min The relative humidity was measured by a calibrated Rotronic probe (dynamic range of 1.0-100% RH), located near the sample. The weight change, (mass relaxation) of the sample as a function of % RH was constantly monitored by the microbalance (accuracy±0.005 mg).
Typically 5-20 mg of sample was placed in a tared mesh stainless steel basket under ambient conditions. The sample was loaded and unloaded at 40% RH and 25° C. (typical room conditions). A moisture sorption isotherm was performed as outlined below (2 scans giving 1 complete cycle). The standard isotherm was performed at 25° C. at 10% RH intervals over a 0-90% RH range. Data analysis was carried out using Microsoft Excel using DVS Analysis Suite v6.2 (or 6.1 or 6.0).
The sample is recovered after completion of the isotherm and re-analyzed by XRPD.

[2] = exposed to 650° C.
[3] = Static stability at elevated humidity (appearance and XRPD after storage); settings: for Static stability 25° C./96% RH: storage at 25° C./96% RH; for Static stability 25° C./96% RH / Static stability 40° C./75% RH: up to 1 week, appearance and XRPD; for Static stability 40° C./75% RH: storage at 40° C./75% RH; for Result (stability of screening orotic acid salts): Table 3, XRPD dry and after 1 week at 40° C./75% relative humidity (FIG. 14); for Result (stability of screening fumaric acid salts): Table 8, 40° C./75% RH, 1 day

(S)-nicotine mono-orotate hemi-hydrate [Salt B]
Relative humidity at which sample deliquesced in GVS (stable until) [1]: 80% RH then deliquesced On | Relative humidity at which sample deliquesced in GVS (stable until) ([1]; listed as Orotate Pattern 2): 80 % RH | Behaviour after deliquescence when humidity is reduced [1]: re-crystallized | On desorption, moisture retained down to / water lost by [1]: down to 60% RH XRPD of residue | On desorption, moisture retained down to / water lost by ([1]; listed as Orotate Pattern 2): 60 % RH | Total weight change 0-90% RH ([1]; GVS isotherm, 0-90% RH): RH = ~60 wt. %, stable until | XRPD of residue after GVS [1]: Pattern 2 with some Orotate Pattern 1 | XRPD of residue after GVS ([1]; listed as Orotate Pattern 2): contained some Pattern 1 material | Nicotine liberated on decomposition (peak areas) [2]: 97 % peak areas | Stability on exposure to high / elevated humidity ([3]; high humidity, general statement): not stable to exposure to high humidity | Static stability 25° C./96% RH [3]: Sticky after 24 hours, deliquesced | Static stability 25° C./96% RH ([3]; listed as Orotate Pattern 2): deliquesced | Static stability 40° C./75% RH [3]: Pattern 2, sticky material | Static stability 40° C./75% RH ([3]; listed as Orotate Pattern 2): sticky material

CN1CCCC1c1cccnc1.O=C(O)c1cc(=O)[nH]c(=O)[nH]1 (centres unmarked) [Formation in water]
Result (stability of screening orotic acid salts) [3]: Stable

CN1CCCC1c1cccnc1.O=C(O)c1cc(=O)[nH]c(=O)[nH]1 (centres unmarked) [Grinding]
Result (stability of screening fumaric acid salts) [3]: Deliquesced

CN1CCCC1c1cccnc1.O=C(O)c1cc(=O)[nH]c(=O)[nH]1.O=C(O)c1cc(=O)[nH]c(=O)[nH]1 (centres unmarked) [Formation in ethanol]
Result (stability of screening orotic acid salts) [3]: Stable

CN1CCCC1c1cccnc1.O=C(O)C=CC(=O)O (centres unmarked) [Formation in neat nicotine]
Result (stability of screening fumaric acid salts) [3]: Deliquesced

CN1CCCC1c1cccnc1.O=C(O)/C=C/C(=O)O (centres unmarked) [Fumarate salt (prepared in THF), nicotine fumarate]
Behaviour after deliquescence when humidity is reduced ([1]; fumarate): remains a liquid | Behaviour after deliquescence when humidity is reduced ([1]; listed as Fumarate Pattern 1, fumarate): does not re-crystallize | Weight gain from 0-90% RH in the GVS isotherm ([1]; GVS isotherm, 0-90% RH): 82% | Total weight change 0-90% RH ([1]; GVS isotherm, 0-90% RH): Total weight change 0-90% RH = 82 wt. % | Hygroscopicity / behaviour in GVS experiment ([1]; 0-90% RH, fumarate): wt. %, sample deliquesces and | Hygroscopicity / behaviour in GVS experiment ([1]; 0-90% RH, listed as Fumarate Pattern 1, fumarate): hygroscopic | Nicotine liberated on decomposition (peak areas) [2]: 97 % peak areas | Humidity at which the form deliquesces (elevated humidities) [3]: > 75 % RH

(S)-nicotine bis-orotate [Salt A]
Total weight change 0-90% RH ([1]; GVS isotherm, 0-90% RH): RH = 0.8 wt. %, steady change in | Hygroscopicity / behaviour in GVS experiment ([1]; 0-90% RH): only slightly hygroscopic | XRPD of residue after GVS [1]: XRPD of residue showed no | Nicotine liberated on decomposition (peak areas) [2]: 97 % peak areas | Thermal stability: thermally stable | Static stability 25° C./96% RH [3]: Pattern 1, runny material | Static stability 25° C./96% RH ([3]; listed as Orotate Pattern 1): runny material | Static stability 25° C./96% RH ([3]; listed as bis-orotate salt-co-crystal): runny material | Static stability 40° C./75% RH [3]: No change
